TGI and GI50 data for 20 compounds are collected here from PubChem BioAssay (NCI).

Among the test systems are RXF 393 renal; SK-OV-3 ovarian; CCRF-CEM leukemia; COLO 205 colon; NCI-H226 lung; MALME-3M melanoma; ACHN renal; HCC-2998 colon; UACC-257 melanoma; PC-3 prostate; SK-MEL-2 melanoma.
What all share (assay): DTP human tumour cell line panel, 48 h

Values joined by “and” are separate entries in the source; they are usually repeats but may differ in a detail not shown here. Identical values can stand only once.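 How tested: cells in 96-well plates exposed to compound for 48 hours at five concentrations. At the GI50, growth is halved. TGI: concentration producing complete growth inhibition.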

As for `CC(=O)NNc1nc(C)c(C(/C=C/c2ccc(Cl)cc2)=N\N=C(N)N)s1`, the concentration for total growth inhibition (TGI) in the test on RXF 393 renal, in the test on SK-OV-3 ovarian, in the test with CCRF-CEM leukemia, in the test on COLO 205 colon, with NCI-H226 lung and in the test with MALME-3M melanoma was > 100 µM throughout. For the same compound, the TGI in the test on ACHN renal, with HCC-2998 colon and in the test on UACC-257 melanoma was > 100 µM in each case.
As to `CC[C@@]1(O)C(=O)OCc2c1cc1n(c2=O)Cc2cc3c(CN(C)C)c(O)ccc3nc2-1`, the GI50 with RXF 393 renal was 0.0188 µM and 0.0182 µM and 0.0775 µM; with PC-3 prostate, 0.0425 µM and 0.26 µM; in the test with CCRF-CEM leukemia, < 0.01 µM and 0.0032 µM; in the test on COLO 205 colon it was 0.384 µM and 0.089 µM and 0.855 µM; in the test on NCI-H226 lung, 0.0153 µM and 0.0964 µM and 0.0626 µM; in the test on MALME-3M melanoma it was 0.0881 µM and 0.157 µM and 0.39 µM. Also, the GI50 is < 0.01 µM and 0.00474 µM and 0.0188 µM with ACHN renal; 0.106 µM and 0.0677 µM and 0.297 µM in the test on UACC-257 melanoma. The TGI in the test with PC-3 prostate was > 90.1 µM and 14.8 µM and 35 µM; with COLO 205 colon, 4.85 µM [middle of 4 runs]; in the test with NCI-H226 lung, 1.28 µM [middle of 4 runs].
With `Clc1ccc(OCc2nnc3sc(SSc4nn5c(COc6ccc(Cl)cc6)nnc5s4)nn23)cc1`, the concentration for total growth inhibition (TGI) with SK-OV-3 ovarian, with CCRF-CEM leukemia, in the test with SK-MEL-2 melanoma, with COLO 205 colon, in the test on NCI-H226 lung and in the test on MALME-3M melanoma was > 100 µM throughout. Also, the total growth inhibition concentration (TGI) with ACHN renal, in the test with HCC-2998 colon and in the test with UACC-257 melanoma was > 100 µM each time. In addition, the GI50 is 76.7 µM in the test on CCRF-CEM leukemia and 16.1 µM in the test on HCC-2998 colon.
As for `O=C(CSc1nnc(Cc2ccccc2)o1)Nc1ccc(Cl)cc1[N+](=O)[O-]`, the TGI with RXF 393 renal was 33.4 µM; in the test with SK-OV-3 ovarian, > 100 µM; in the test with CCRF-CEM leukemia it was 54.4 µM; in the test on SK-MEL-2 melanoma, 29.8 µM; in the test with COLO 205 colon it was 46.4 µM; with NCI-H226 lung it was 47.6 µM. Moreover, the figures for the TGI in the test on MALME-3M melanoma, in the test with ACHN renal and in the test with UACC-257 melanoma were 30.2 µM, 25.2 µM and 36.3 µM, respectively.
As to `C=C1C2C[C@@H]3O[C@H]4C[C@H]5O[C@@]6(C[C@@H]7O[C@]8(C[C@H](C)[C@@H]9O[C@@H]%10CC(C=O)O[C@@H]%10C[C@@H]9O8)C[C@H](C)[C@@H]7O6)C[C@H]5O[C@H]4[C@H](C)[C@H]3OC(=O)C[C@H]3CC[C@@H]4OC5[C@H]6O[C@]7(CC[C@H]8CC(=C)[C@H](CC[C@@H](C[C@H]1C)O2)O8)CC6O[C@@H]5[C@@H](O7)[C@H]4O3` (stereo partly drawn), the concentration for total growth inhibition (TGI) is > 1 µM with SK-OV-3 ovarian; > 1 µM in the test with PC-3 prostate; 0.00103 µM with COLO 205 colon; 0.0119 µM in the test with NCI-H226 lung; > 1 µM with ACHN renal; > 1 µM in the test on HCC-2998 colon.
As to `O=C1C[C@@H]2[C@@H](CCC23CCCC3)N1`, the concentration for total growth inhibition (TGI) in the test on RXF 393 renal, with SK-OV-3 ovarian, with CCRF-CEM leukemia, in the test on SK-MEL-2 melanoma, with COLO 205 colon and with NCI-H226 lung was > 100 µM in each case. Also, the TGI in the test with MALME-3M melanoma, with ACHN renal, in the test with HCC-2998 colon and in the test on UACC-257 melanoma was > 100 µM each time.
In the case of `O=C1N=CN=C2C=CC(Cl)=C(I)C12` (stereo not drawn), the TGI in the test with RXF 393 renal was 70.8 µM; in the test on SK-OV-3 ovarian, > 100 µM; in the test on CCRF-CEM leukemia, > 100 µM; with SK-MEL-2 melanoma, > 100 µM; in the test on COLO 205 colon it was > 100 µM; in the test with MALME-3M melanoma, > 100 µM. Further, the TGI with ACHN renal, in the test on HCC-2998 colon and in the test with UACC-257 melanoma was > 100 µM in each case.
Consider `CC(C)COC(=O)c1ccc(N=Cc2ccc(C=Nc3ccc(C(=O)OCC(C)C)cc3)cc2)cc1`, for which the TGI in the test on SK-OV-3 ovarian, in the test on SK-MEL-2 melanoma, in the test on COLO 205 colon, in the test with NCI-H226 lung, in the test with MALME-3M melanoma and in the test with ACHN renal was > 100 µM in each case. Moreover, the concentration for total growth inhibition (TGI) in the test with HCC-2998 colon and in the test with UACC-257 melanoma was > 100 µM throughout.
For `CN1CN(c2ccccc2)C2(CCN(C3Nc4ccccc4O3)CC2)C1=O` (stereo not drawn), the TGI in the test with RXF 393 renal came to 35.5 µM; in the test on SK-OV-3 ovarian, 48.1 µM; with PC-3 prostate it was 45.2 µM; in the test with CCRF-CEM leukemia it was 57.6 µM; in the test with SK-MEL-2 melanoma, 28.3 µM; in the test on COLO 205 colon, 30.1 µM. Moreover, the total growth inhibition concentration (TGI) with NCI-H226 lung is 50.3 µM; with MALME-3M melanoma, 38 µM; with ACHN renal, 55.9 µM; with UACC-257 melanoma it was 33.7 µM.
`CCOc1ccc(N2C(=O)NC3(c4ccccc4)N(C)C(=O)N(C)C23c2ccccc2)cc1` (stereo not drawn): the concentration for total growth inhibition (TGI) with RXF 393 renal, with SK-OV-3 ovarian, in the test with PC-3 prostate, in the test on CCRF-CEM leukemia, in the test with SK-MEL-2 melanoma and in the test on COLO 205 colon was > 100 µM throughout. Besides, the TGI in the test on NCI-H226 lung, with MALME-3M melanoma, in the test on ACHN renal and with UACC-257 melanoma was > 100 µM in each case.
On to `O=C(O)CCNc1ncc2c(n1)-c1ccccc1OC2`, for which the concentration for total growth inhibition (TGI) in the test on RXF 393 renal, in the test on SK-OV-3 ovarian, in the test on PC-3 prostate, in the test on CCRF-CEM leukemia, in the test on SK-MEL-2 melanoma and in the test with COLO 205 colon was > 100 µM in each case. Further, the concentration for total growth inhibition (TGI) in the test on NCI-H226 lung, in the test on MALME-3M melanoma, with ACHN renal and with UACC-257 melanoma was > 100 µM each time.
On to `O=S(=O)(Nc1nccs1)c1ccc([As](=O)(O)O)cc1`, for which the total growth inhibition concentration (TGI) with RXF 393 renal, in the test with SK-OV-3 ovarian, with PC-3 prostate, with CCRF-CEM leukemia, with SK-MEL-2 melanoma and with COLO 205 colon was > 100 µM each time. The concentration for total growth inhibition (TGI) in the test on NCI-H226 lung, in the test on MALME-3M melanoma and in the test on ACHN renal was > 100 µM each time.
For `CC(=O)Nc1ncc2c(n1)-c1ccccc1OC2c1ccccc1` (stereo not drawn), the TGI with RXF 393 renal is 63.2 µM; in the test on SK-OV-3 ovarian, > 100 µM; in the test on PC-3 prostate, > 100 µM; in the test on CCRF-CEM leukemia it was > 100 µM; with SK-MEL-2 melanoma, > 100 µM; in the test with COLO 205 colon, > 100 µM. Moreover, the TGI in the test with NCI-H226 lung was 52.1 µM; in the test with ACHN renal it was 28.2 µM; with UACC-257 melanoma, > 100 µM.
Take `N#CC(NNC(=O)c1c(Cl)c(Cl)c(Cl)c(Cl)c1-c1nc2ccc(C(=O)c3ccccc3)cc2[nH]1)c1ccccc1` (stereo not drawn): the TGI with RXF 393 renal is 22.8 µM; with SK-OV-3 ovarian, 69.8 µM; with PC-3 prostate it was > 100 µM; in the test on CCRF-CEM leukemia, > 100 µM; in the test on SK-MEL-2 melanoma it was 58.1 µM; in the test with COLO 205 colon, 24.3 µM. Moreover, the TGI with NCI-H226 lung is 28.3 µM; in the test on MALME-3M melanoma, > 100 µM; with ACHN renal it was > 100 µM; in the test with UACC-257 melanoma, > 100 µM.
On to `CC(C)=CC1C(COC(=O)c2ccccc2Cl)C1(C)C` (stereo not drawn), for which the TGI in the test with RXF 393 renal was 65.6 µM; in the test with PC-3 prostate, > 100 µM; in the test on CCRF-CEM leukemia it was > 100 µM; in the test on SK-MEL-2 melanoma it was > 100 µM; in the test with NCI-H226 lung, 82.2 µM; in the test with MALME-3M melanoma, 70.3 µM. The concentration for total growth inhibition (TGI) in the test on ACHN renal and with UACC-257 melanoma was > 100 µM throughout.
On to `CCOC(=O)c1cc(-c2ccc([N+](=O)[O-])cc2)c([N+](=O)[O-])[nH]1`, for which the total growth inhibition concentration (TGI) was 9.41 µM with RXF 393 renal; > 10 µM in the test on SK-OV-3 ovarian; > 10 µM in the test on CCRF-CEM leukemia; > 10 µM in the test on SK-MEL-2 melanoma; 5.77 µM in the test with NCI-H226 lung; > 10 µM in the test with MALME-3M melanoma. The TGI in the test on ACHN renal is > 10 µM; in the test on HCC-2998 colon, > 10 µM; with UACC-257 melanoma it was 5.68 µM.
For the compound `O=c1oc2ccc3ccccc3c2cc1-c1nc(-c2ccc([N+](=O)[O-])cc2)n[nH]1`, the TGI is 52.7 µM in the test with SK-OV-3 ovarian; > 100 µM in the test with PC-3 prostate; > 100 µM in the test with CCRF-CEM leukemia; > 100 µM in the test with SK-MEL-2 melanoma; > 100 µM in the test on COLO 205 colon; > 100 µM in the test on MALME-3M melanoma. For the same compound, the total growth inhibition concentration (TGI) in the test on ACHN renal, with HCC-2998 colon and in the test on UACC-257 melanoma was > 100 µM in each case.
As for `CC1OC(OC2C(OC(=O)[C@]34CCC(C)(C)CC3C3=CCC5[C@@]6(C)C[C@H](O)[C@H](OC7OC(COC8OC(CO)C(O)C(O)C8O)C(O)C(O)C7O)[C@@](C)(C(=O)O)C6CC[C@@]5(C)C3(C)CC4)OCC(O)C2O)C(O)C(O)C1OC1OCC(O)C(O)C1O` (stereo partly drawn), the total growth inhibition concentration (TGI) with RXF 393 renal, in the test on SK-OV-3 ovarian, in the test on CCRF-CEM leukemia, with SK-MEL-2 melanoma, with COLO 205 colon and with NCI-H226 lung was > 100 µM in each case. For the same compound, the TGI with MALME-3M melanoma, in the test with ACHN renal, with HCC-2998 colon and in the test on UACC-257 melanoma was > 100 µM each time.
In the case of `Cc1cc(N(CCC#N)CCC#N)ccc1/C=C1N=C(/C=C/c2ccccc2)N(c2ccc(S(N)(=O)=O)cc2)C\1=O`, the TGI in the test on SK-OV-3 ovarian, in the test with CCRF-CEM leukemia, in the test with SK-MEL-2 melanoma, with COLO 205 colon, in the test with NCI-H226 lung and in the test on MALME-3M melanoma was > 100 µM throughout. Also, the TGI with ACHN renal and with UACC-257 melanoma was > 100 µM in each case.
As to `CCCCC(O)(c1ccccc1)C(O)(c1ccccc1)c1c(F)c(F)c(F)c(F)c1F` (stereo not drawn), the concentration for total growth inhibition (TGI) in the test on SK-OV-3 ovarian was > 100 µM; in the test with PC-3 prostate it was 46.8 µM; in the test with CCRF-CEM leukemia, 88.7 µM; in the test on NCI-H226 lung it was 86 µM; in the test with MALME-3M melanoma it was 32.6 µM; with ACHN renal it was 72.6 µM. Moreover, the concentration for total growth inhibition (TGI) came to 31 µM in the test on HCC-2998 colon and 49.1 µM with UACC-257 melanoma.

In general, TGI refers to the concentration giving total growth inhibition. Low readings indicate more potent growth arrest, high ones less potent growth arrest. What is called GI50 is the concentration that inhibits growth by half.
